{
  "source": "patent US20100249050A1",
  "about": "“[…] AND USE THEREOF” (SHANDONG UNIVERSITY, priority 2008, published 2010)",
  "conditions_in_all_cases": "for Inhibition rate of growth: 48-72 hrs",
  "key": {"[1]": {"tested_on": "human lung cancer cell A-549", "assay": "Antitumor activity test (MTT reduction / SRB protein staining), growth inhibition of A-549", "type": "cell-based", "description": "(§1) Screening method: methyl-thiazol-tettazolium (MTT) reduction method and sulforhodamine B (SRB) protein staining method.\n(§2) Cell strains: human liver cancer cell HepG2, human lung cancer cell A-549, and breast cancer cell MDA-MB-435."}, "[2]": {"tested_on": "breast cancer cell MDA-MB-435", "assay": "Antitumor activity test (MTT reduction / SRB protein staining), growth inhibition of MDA-MB-435", "type": "cell-based, human", "description": "as §1, §2"}, "[3]": {"tested_on": "human liver cancer cell HepG2", "assay": "Antitumor activity test (MTT reduction / SRB protein staining), growth inhibition of HepG2", "type": "cell-based", "description": "as §1, §2"}},
  "note": "pIC50: −log10 of the molar value.",
  "data": [
    {"smiles": "CC(=Cc1csc(C)n1)C1CC2OC2CCCC(C)C(O)C(C)C(=O)C(C)(C)C(OC2OC(CO)C(O)C2O)CC(=O)O1", "note": "(centres unmarked) [epothilone glycoside A-1]", "values": [
      {"measurement": "Inhibition grade (no / weak / strong effect)", "setting": "[1]; A-549, at the concentration of 10^−6 M", "value": "weak inhibition"},
      {"measurement": "Inhibition rate of growth", "setting": "[1]; A-549, concentration 10^−4 M", "value": 90.6},
      {"measurement": "Inhibition rate of growth", "setting": "[1]; A-549, concentration 10^−5 M", "value": 83.7},
      {"measurement": "Inhibition rate of growth", "setting": "[1]; A-549, concentration 10^−6 M", "value": 72.0},
      {"measurement": "Inhibition rate of growth", "setting": "[1]; A-549, concentration 10^−7 M", "value": 0},
      {"measurement": "Inhibition rate of growth", "setting": "[1]; A-549, concentration 10^−8 M", "value": 0},
      {"measurement": "pIC50", "setting": "[2]; MDA-MB-435, 48-72 hrs", "value": 5.68},
      {"measurement": "Inhibition grade (no / weak / strong effect)", "setting": "[2]; MDA-MB-435, at the concentration of 10^−6 M", "value": "weak inhibition"},
      {"measurement": "Inhibition rate of growth", "setting": "[2]; MDA-MB-435, concentration 1 μM", "value": 18.9},
      {"measurement": "Inhibition rate of growth", "setting": "[2]; MDA-MB-435, concentration 2 μM", "value": 55.0},
      {"measurement": "Inhibition rate of growth", "setting": "[2]; MDA-MB-435, concentration 4 μM", "value": 76.1},
      {"measurement": "Inhibition rate of growth", "setting": "[2]; MDA-MB-435, concentration 8 μM", "value": 84.6},
      {"measurement": "Inhibition rate of growth", "setting": "[2]; MDA-MB-435, concentration 10 μM", "value": 98.2},
      {"measurement": "pIC50", "setting": "[3]; HepG2, 48-72 hrs", "value": 7.15},
      {"measurement": "Inhibition grade (no / weak / strong effect)", "setting": "[3]; HepG2, at the concentration of 10^−6 M", "value": "strong inhibition"},
      {"measurement": "Inhibition rate of growth", "setting": "[3]; HepG2, concentration 10^−4 M", "value": 100},
      {"measurement": "Inhibition rate of growth", "setting": "[3]; HepG2, concentration 10^−5 M", "value": 99.9},
      {"measurement": "Inhibition rate of growth", "setting": "[3]; HepG2, concentration 10^−6 M", "value": 93.3},
      {"measurement": "Inhibition rate of growth", "setting": "[3]; HepG2, concentration 10^−7 M", "value": 41.5},
      {"measurement": "Inhibition rate of growth", "setting": "[3]; HepG2, concentration 10^−8 M", "value": 15.7}
    ]}
  ]
}
